From PMC2902621 (Archives of biochemistry and biophysics, 2010)

Target: cytochrome c peroxidase (CcP) (Saccharomyces cerevisiae, UniProt P00431, R115A/T120I/D219G/W258F)
Test: UV-visible optical titration of ferric enzyme
Format: binding

Chain of cytochrome c peroxidase (CcP) (P00431 68-361 R115A/T120I/D219G/W258F): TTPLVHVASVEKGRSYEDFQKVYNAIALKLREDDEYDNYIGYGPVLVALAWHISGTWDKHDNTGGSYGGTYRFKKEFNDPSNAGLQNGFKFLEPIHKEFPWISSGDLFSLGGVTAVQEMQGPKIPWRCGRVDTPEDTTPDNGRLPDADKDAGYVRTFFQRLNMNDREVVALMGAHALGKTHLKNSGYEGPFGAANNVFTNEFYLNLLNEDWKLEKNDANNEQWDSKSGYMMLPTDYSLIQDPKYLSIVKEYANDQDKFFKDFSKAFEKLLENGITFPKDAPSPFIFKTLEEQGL

N=C(N)NO [NHG, N-hydroxyguanidine]
Kd: 3.37 mM
